Values quoted from earlier work in patent US20080175827A1, “PHOSPHOLIPASE C ZETA MEDIATED OOCYTE ACTIVATION, COMPOSITIONS FOR USE THEREIN, AND ASSAYS FOR DETECTING AND IDENTIFYING AGENTS FOR TREATING MALE INFERTILITY” (Michigan State University, priority 2006, published 2008).

Experiments:
bovine eggs = conditions: bovine oocytes; Malcuit and Fissore 2007
IP3R = conditions: mice; Jellerette et al. 2000

Question: Which results are given for `[Cl-].[Cl-].[Sr+2]` [strontium chloride]?
Answer: [Ca2+]i oscillations (bovine eggs): does not induces [Ca^2+]i oscillations; IP3R downregulation (IP3R): does not downregulate IP3R
